Reference: paper PMC4046051, “Two M-T hook residues greatly improve the antiviral activity and resistance profile of the HIV-1 fusion inhibitor SC29EK” (Retrovirology, 2014)
Peptide text beside a SMILES is read from it.

What was measured:
[1] = biological target: T1, NHR peptide N36 (HIV-1 gp41) (Human immunodeficiency virus type 1 group M subtype B, UniProt P04578); test: CD thermal denaturation of 6-HB formed by CHR peptide and N36; type: binding; conditions: CHR peptide + N36, each 10 μM in PBS pH 7.2; CD at 222 nm, 20-98°C
T1 construct: made in house; host or cells: chemical synthesis (solid-phase FMOC), no expression host
Procedure: (§1) CD spectroscopy was performed according to our protocols described previously. […] The final concentration of each peptide was 10 μM in PBS buffer (pH 7.2). The CD spectra were acquired on a Jasco spectropolarimeter (model J-815) using a 1 nm bandwidth with a 1 nm step resolution from 195 to 260 nm at room temperature. The spectra were corrected by subtraction of a blank corresponding to the solvent. Data were averaged over three accumulations. The α-helical content was calculated from the CD signal by dividing the mean residue ellipticity [θ] at 222 nm by the value expected for 100% helix formation (-33,000 degrees.cm^2.dmol^-1). The thermal denaturation experiment was performed by monitoring the change in ellipticity [θ] at 222 nm at the increasing temperature (20–98°C) using temperature controller. The temperature was increased at a rate of 1.2°C per min; data were acquired at a 1 nm bandwidth at 222 nm at a frequency of 0.25 Hz. The melting curve was smoothened, and the midpoint of the thermal unfolding transition (Tm) values were taken as the maximum of the derivative d [θ]222/dT. The Tm value was detected at a peptide concentration of 10 μM in PBS buffer.

[2] = biological target: T1, NHR peptide N36 (HIV-1 gp41); test: Isothermal titration calorimetry (ITC) with N36; type: binding; conditions: 25°C; for Kd: 1 mM N36 injected into 100 μM peptide, read-out: binding constant (K) (converted)
Procedure: ITC assay was performed using an ITC200 Microcalorimeter instrument (MicroCal, USA) as described previously. In brief, 1 mM N36 dissolved in ddH20 was injected into the chamber containing 100 μM SC29EK or MT-SC29EK. The experiments were carried out at 25°C. The time between injections was 240 s and the stirring speed was 500 rpm. The heats of dilution were determined in control experiments by injecting N36 into ddH20 and subtracted from the heats produced in the corresponding peptide-peptide binding experiments. Data acquisition and analysis were performed using MicroCal Origin software (version 7.0).

[3] = biological target: T2, six-helical bundle (6-HB) of N36 and biotinylated-C34 (Human immunodeficiency virus type 1 group M subtype B, UniProt P04578); test: Inhibition of 6-HB formation, NC-1 capture ELISA; type: biochemical, HIV-1; conditions: for IC50: biotinylated-C34 0.1 μM, N36 0.1 μM, 30 min room temperature, 3 independent experiments
T2 construct: made in house; host or cells: chemical synthesis (solid-phase FMOC), no expression host
Procedure: The 6-HB core-specific monoclonal antibody NC-1 was obtained from Dr. Shibo Jiang in the New York Blood Center (New York, NY) through the ARRRP, Division of AIDS, NIAID, National Institute of Health. The inhibitory activity of SC29EK or MT-SC29EK on the 6-HB formation was measured by a modified ELISA as previously described. Briefly, a 96-well polystyrene plate was coated with 2 μg/ml NC-1 in 0.1 M Tris buffer (pH 8.8). A tested peptide at graded concentrations was mixed with the biotinylated-C34 (0.1 μM) and incubated with N36 (0.1 μM) at room temperature for 30 min. The mixture was then added to the NC-1-coated plate, followed by incubation for 30 min and washing with a washing buffer (PBS containing 0.1% Tween 20) three times. Then horseradish peroxidase (HRP)-labeled streptavidin (Invitrogen) and the substrate 3,3,5,5- tetramethylbenzidine (Sigma) were sequentially added. Absorbance at 450 nm (A450) was measured using an ELISA reader.

HIV-1NL4-3 pseudovirus = type: cell-based; conditions: for IC50: 100 TCID50, TZM-bl cells, 48 h, luciferase, mean ± SD of three independent experiments, SD, read-out: IC50 Entry
Procedure: (§2) The inhibition of peptides on the HIV-1 entry was determined by single-cycle infection assay as described previously. Briefly, HIV-1 pseudovirus was generated by cotransfecting 293 T cells with an Env-expressing plasmid and a backbone plasmid pSG3^Δenv that encodes Env-defective, luciferase-expressing HIV-1 genome. The supernatants were harvested and filtered 48 h after transfection and 50% tissue culture infectious dose (TCID50) was determined in TZM-bl cells. The peptides were prepared with 3-fold dilutions and mixed with 100 TCID50 viruses and then incubated 1 h at room temperature. The mixture was added to TZM-bl cells (10^4/well) and incubated 48 h at 37°C. The luciferase activity was measured using luciferase assay reagents and a Luminescence Counter (Promega).

wild-type HIV-1NL4-3 = type: cell-based; conditions: for IC50: wild-type HIV-1NL4-3, 100 TCID50, TZM-bl cells, two days, luciferase, mean ± SD of three independent experiments, SD, read-out: IC50 Replication
Procedure: The inhibition of peptides on HIV-1 replication was determined by a molecular cloned wild-type HIV-1NL4–3. In brief, the virus stock was harvested and quantified 48 h post-transfection. 100 TCID50 viruses were used to infect TZM-bl cells in the presence or absence of serially diluted peptides. Two days post-infection, the cells were harvested and lysed in reporter lysis buffer and the luciferase activity was measured as described above.

HIV-1 NL4-3 WT = test: Inhibition of T20-resistant HIV-1 variants panel: WT; type: cell-based; conditions: for IC50: mean ± SD of three independent experiments, SD
Procedure: as §2

HIV-1 NL4-3 I37T = test: Inhibition of T20-resistant HIV-1 variants: I37T; type: cell-based; conditions: for IC50: mean ± SD of three independent experiments, SD
Procedure: as §2

HIV-1 NL4-3 V38A = test: Inhibition of T20-resistant HIV-1 variants: V38A; type: cell-based; conditions: for IC50: mean ± SD of three independent experiments, SD
Procedure: as §2

HIV-1 NL4-3 V38M = test: Inhibition of T20-resistant HIV-1 variants: V38M; type: cell-based; conditions: for IC50: mean ± SD of three independent experiments, SD
Procedure: as §2

HIV-1 NL4-3 Q40H = test: Inhibition of T20-resistant HIV-1 variants: Q40H; type: cell-based; conditions: for IC50: mean ± SD of three independent experiments, SD
Procedure: as §2

HIV-1 NL4-3 N43K = test: Inhibition of T20-resistant HIV-1 variants: N43K; type: cell-based; conditions: for IC50: mean ± SD of three independent experiments
Procedure: as §2

HIV-1 NL4-3 D36S/V38M = test: Inhibition of T20-resistant HIV-1 variants: D36S/V38M; type: cell-based; conditions: for IC50: mean ± SD of three independent experiments, SD
Procedure: as §2

HIV-1 NL4-3 I37T/N43K = test: Inhibition of T20-resistant HIV-1 variants: I37T/N43K; type: cell-based; conditions: for IC50: mean ± SD of three independent experiments
Procedure: as §2

HIV-1 NL4-3 V38A/N42T = test: Inhibition of T20-resistant HIV-1 variants: V38A/N42T; type: cell-based; conditions: for IC50: mean ± SD of three independent experiments, SD
Procedure: as §2

N36 mutant V38A = test: CD thermal denaturation of 6-HB formed with N36 mutant V38A; type: binding, HIV-1; conditions: CHR peptide + N36 V38A mutant, each 10 μM in PBS
Procedure: as §1

N36 mutant I37T/N43K = biological target: T3, N36 mutant I37T/N43K (Human immunodeficiency virus type 1 group M subtype B, UniProt P04578, I548T/N554K); test: CD thermal denaturation of 6-HB formed with N36 mutant I37T/N43K; type: binding, HIV-1; conditions: CHR peptide + N36 I37T/N43K mutant, each 10 μM in PBS
T3 construct: A panel of N36-based peptides carrying a single (I37T, V38A, Q40H, N43K) or double (I37T/N43K and V38A/N42T) NHR mutations; made in house; host or cells: chemical synthesis (solid-phase FMOC), no expression host
Procedure: as §1

[4] = tested on: molecular clone of HIV-1NL4-3; test: In vitro selection of HIV-1 resistance in MT-4 cells; type: cell-based; conditions: 1.5-2 fold escalating concentrations, after 35 generations of passage over 7 months
Procedure: The in vitro selection of HIV-1 resistance to peptide inhibitors was performed as described previously. Briefly, MT-4 cells were seeded at 1 × 10^4 in RPMI 1640 medium containing 10% fetal bovine serum on 12-well plates. The molecular clone of HIV-1NL4–3 was used to infect the cells in the presence or absence of diluted peptide inhibitors (SC29EK, MT-SC29EK, SC22EK and MT-SC22EK). The cells were incubated at 37°C with 5% CO2 until an extensive cytopathic effect was observed. The culture supernatants were harvested and used for next passage on fresh MT-4 cells with 1.5-2 fold increasing concentrations of peptide. Cells and supernatant were harvested at regular time points and stored at -80°C.

Structure (SMILES)	Tm (midpoint of the thermal unfolding transition) of 6-HB [1]	Kd [2]	IC50 [3]	IC50 (HIV-1NL4-3 pseudovirus)	IC50 (wild-type HIV-1NL4-3)	n-fold relative to the IC50 of the wild-type (WT) virus (HIV-1 NL4-3 WT)	IC50 (HIV-1 NL4-3 WT)	n-fold relative to the IC50 of the wild-type (WT) virus (HIV-1 NL4-3 I37T)	IC50 (HIV-1 NL4-3 I37T)	n-fold relative to the IC50 of the wild-type (WT) virus (HIV-1 NL4-3 V38A)	IC50 (HIV-1 NL4-3 V38A)	n-fold relative to the IC50 of the wild-type (WT) virus (HIV-1 NL4-3 V38M)	IC50 (HIV-1 NL4-3 V38M)	n-fold relative to the IC50 of the wild-type (WT) virus (HIV-1 NL4-3 Q40H)	IC50 (HIV-1 NL4-3 Q40H)	n-fold relative to the IC50 of the wild-type (WT) virus (HIV-1 NL4-3 N43K)	n-fold relative to the IC50 of the wild-type (WT) virus (HIV-1 NL4-3 D36S/V38M)	IC50 (HIV-1 NL4-3 D36S/V38M)	n-fold relative to the IC50 of the wild-type (WT) virus (HIV-1 NL4-3 I37T/N43K)	n-fold relative to the IC50 of the wild-type (WT) virus (HIV-1 NL4-3 V38A/N42T)	further results
CC[C@H](C)[C@H](NC(=O)[C@H](CC(C)C)NC(=O)[C@H](CCC(=O)O)NC(=O)[C@H](CCC(=O)O)NC(=O)[C@@H](NC(=O)[C@H](CCCCN)NC(=O)[C@H](CCCCN)NC(=O)[C@@H](NC(=O)[C@H](Cc1ccc(O)cc1)NC(=O)[C@H](CCC(=O)O)NC(=O)[C@H](CCC(=O)O)NC(=O)[C@@H](NC(=O)[C@H](CCCCN)NC(=O)[C@H](CCCCN)NC(=O)[C@H](CC(=O)O)NC(=O)[C@H](Cc1c[nH]c2ccccc12)NC(=O)[C@H](CCC(=O)O)NC(=O)[C@H](CCC(=O)O)NC(=O)[C@H](Cc1c[nH]c2ccccc12)NC(=O)[C@@H](NC(=O)[C@H](CCSC)NC(C)=O)[C@@H](C)O)[C@@H](C)CC)[C@@H](C)O)[C@@H](C)CC)C(=O)N[C@@H](CCCCN)C(=O)N[C@@H](CCCCN)C(=O)N[C@@H](CO)C(=O)N[C@@H](CCC(=O)O)C(=O)N[C@@H](CCC(=O)O)C(=O)N[C@@H](CCC(N)=O)C(=O)N[C@@H](CCC(N)=O)C(=O)N[C@@H](CCCCN)C(=O)N[C@@H](CCCCN)C(=O)N[C@@H](CC(N)=O)C(N)=O [MT-SC29EK] (Ac-MTWEEWDKKIEEYTKKIEELIKKSEEQQKKN-NH2)	79.1 °C	15.5 nM	600 nM	0.7 nM	0.2 nM	1	0.6 ± 0.1 nM	1.3	0.8 ± 0.2 nM	1	0.6 ± 0.1 nM	2.8	1.7 nM	1.3	0.8 ± 0.1 nM	12	2	1.2 nM	35.3	1	fold increase of K value compared to SC29EK [2]: 4.7 fold; fold increase of 6-HB blocking potency over SC29EK [3]: 23 fold; fold increased potency over SC29EK, entry (HIV-1NL4-3 pseudovirus): 3.1 fold; fold increase of potency over SC29EK, replication (wild-type HIV-1NL4-3; wild-type HIV-1NL4-3): 4.5 fold; IC50 (HIV-1 NL4-3 N43K; SD): 7.2 ± 0.2 nM; IC50 (HIV-1 NL4-3 I37T/N43K; SD): 21.2 ± 4.4 nM; IC50 (HIV-1 NL4-3 V38A/N42T): 0.6 nM
CC[C@H](C)[C@H](NC(=O)[C@H](CC(C)C)NC(=O)[C@H](CCC(=O)O)NC(=O)[C@H](CCC(=O)O)NC(=O)[C@@H](NC(=O)[C@H](CCCCN)NC(=O)[C@H](CCCCN)NC(=O)[C@@H](NC(=O)[C@H](Cc1ccc(O)cc1)NC(=O)[C@H](CCC(=O)O)NC(=O)[C@H](CCC(=O)O)NC(=O)[C@@H](NC(=O)[C@H](CCCCN)NC(=O)[C@H](CCCCN)NC(=O)[C@H](CC(=O)O)NC(=O)[C@H](Cc1c[nH]c2ccccc12)NC(=O)[C@H](CCC(=O)O)NC(=O)[C@H](CCC(=O)O)NC(=O)[C@H](Cc1c[nH]c2ccccc12)NC(C)=O)[C@@H](C)CC)[C@@H](C)O)[C@@H](C)CC)C(=O)N[C@@H](CCCCN)C(=O)N[C@@H](CCCCN)C(=O)N[C@@H](CO)C(=O)N[C@@H](CCC(=O)O)C(=O)N[C@@H](CCC(=O)O)C(=O)N[C@@H](CCC(N)=O)C(=O)N[C@@H](CCC(N)=O)C(=O)N[C@@H](CCCCN)C(=O)N[C@@H](CCCCN)C(=O)N[C@@H](CC(N)=O)C(N)=O [SC29EK] (Ac-WEEWDKKIEEYTKKIEELIKKSEEQQKKN-NH2)	69.1 °C	71.9 nM	14000 nM	2.2 ± 0.3 nM	0.9 ± 0.2 nM	1	1.8 ± 0.2 nM	8.3	15 ± 0.3 nM	9	16.2 ± 1.9 nM	8.4	15.1 ± 1.8 nM	46.6	83.8 ± 10.8 nM	>138.9	6.5	11.7 ± 0.7 nM	>138.9	20.9	Tm of 6-HB (N36 mutant V38A): 62.1 °C; Tm of 6-HB (N36 mutant I37T/N43K): 61.1 °C; IC50 (HIV-1 NL4-3 N43K): > 250 nM; IC50 (HIV-1 NL4-3 I37T/N43K): > 250 nM; IC50 (HIV-1 NL4-3 V38A/N42T): 37.7 ± 6.4 nM; peptide concentration reached during in vitro selection of resistant virus [4]: 2,650 nM
